pKd: −log10 of the molar value. Where two headings read alike, the source gives them in different places. *1 amine or outer side, *2 acyl side, *3 side chain or, on linkers, in order; H or OH if unused. Where a SMILES comes first, the peptide text is derived from it. Bridges are numbered along the chain shown (N, C = ends). [ ]: non-standard residue; d: D form. The star is where a group is joined. hPhe(3-Cl-4-CF3) = N[C@@H](CCc1ccc(C(F)(F)F)c(Cl)c1)C(=O)O; X36 = Cc1ccc(C[C@@H](C(=O)[*:2])N(CCC(F)(F)F)[*:1])cc1; NPrPhe(4-CF3) = CCCN[C@@H](Cc1ccc(C(F)(F)F)cc1)C(=O)O; NEtPhe(4-Me) = CCN[C@@H](Cc1ccc(C)cc1)C(=O)O; NMeGly(cPent) = CN[C@H](C(=O)O)C1CCCC1; Hyp = O=C(O)[C@@H]1C[C@@H](O)CN1; NMeD = CN[C@@H](CC(=O)O)C(=O)O; NMeL = CN[C@@H](CC(C)C)C(=O)O; Morpholide = C1CN(*)CCO1; NMeA = CN[C@@H](C)C(=O)O; Ac5c = NC1(C(=O)O)CCCC1; Aze = O=C(O)[C@@H]1CCN1; Ac4c = NC1(C(=O)O)CCC1; Sar = CNCC(=O)O

Assay [1] addresses GDP-bound KRAS wild-type protein (Homo sapiens, UniProt P01116). Briefly: Binding to KRAS by surface plasmon resonance (SPR), Single Cycle Kinetics. Particulars: GDP-bound KRAS wild-type protein, read-out: KRAS KD.
Assay [2] addresses GDP-bound NRAS wild-type protein (Homo sapiens, UniProt P01111). Briefly: Binding to NRAS by surface plasmon resonance (SPR), Single Cycle Kinetics. Particulars: for NRAS/KRAS (ratio of KD value with respect to GDP-bound NRAS wild-type protein to KD value with respect to KRAS): SPR KD ratio NRAS/KRAS, class symbols; for NRAS/KRAS (ratio of KD value for NRAS to KD value for KRAS): SPR, GDP-bound NRAS wild-type protein vs GDP-bound KRAS wild-type protein. A general note: In SPR one partner is held on a chip, and binding of the other changes the refractive index at the surface.

Assay [3] concerns the target GDP-bound HRAS wild-type protein (Homo sapiens, UniProt P01112). Briefly: Binding to HRAS by surface plasmon resonance (SPR), Single Cycle Kinetics. The following applies: for HRAS/KRAS (ratio of KD value with respect to GDP-bound HRAS wild-type protein to KD value with respect to KRAS): SPR KD ratio HRAS/KRAS, class symbols; for HRAS/KRAS (ratio of KD value for HRAS to KD value for KRAS): SPR, GDP-bound HRAS wild-type protein vs GDP-bound KRAS wild-type protein.

Setting [4] is: SPR Single Cycle Kinetics, 1:1 binding model.

Sequence of GDP-bound HRAS wild-type protein (P01112 whole entry): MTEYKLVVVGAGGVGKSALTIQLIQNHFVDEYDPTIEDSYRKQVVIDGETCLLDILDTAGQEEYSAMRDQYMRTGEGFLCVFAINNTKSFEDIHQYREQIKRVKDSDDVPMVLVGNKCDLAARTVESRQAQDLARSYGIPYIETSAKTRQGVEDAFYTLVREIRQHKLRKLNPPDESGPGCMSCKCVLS
Sequence of GDP-bound KRAS wild-type protein (P01116 whole entry): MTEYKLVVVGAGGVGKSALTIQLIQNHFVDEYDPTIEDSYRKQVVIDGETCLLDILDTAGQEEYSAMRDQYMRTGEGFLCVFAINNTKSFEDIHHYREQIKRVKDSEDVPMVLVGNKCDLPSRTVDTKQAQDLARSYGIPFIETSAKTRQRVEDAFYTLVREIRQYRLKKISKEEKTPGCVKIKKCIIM
Sequence of GDP-bound NRAS wild-type protein (P01111 whole entry): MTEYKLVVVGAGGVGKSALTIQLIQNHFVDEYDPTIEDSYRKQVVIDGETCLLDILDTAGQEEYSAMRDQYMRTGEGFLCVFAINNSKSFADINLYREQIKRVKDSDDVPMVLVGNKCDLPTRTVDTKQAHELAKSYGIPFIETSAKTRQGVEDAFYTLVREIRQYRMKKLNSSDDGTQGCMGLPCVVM

On to `CCC[C@H]1C(=O)N[C@@H]([C@@H](C)CC)C(=O)N(C)CC(=O)N(C)[C@H]2C/C=C\CCN(C2=O)[C@@H](Cc2ccc(C(F)(F)F)cc2)C(=O)N(C)CC(=O)N[C@@H](CCc2ccc3c(C)c(C)n(C)c3c2)C(=O)N2C[C@H](OCC)C[C@H]2C(=O)NC2(CC(C)(C)C2)C(=O)N(C)[C@@H](C2CCCC2)C(=O)N(C)[C@H](C(=O)N(C)C)CC(=O)N1C` [PP2893], for which, in assay [1] (setting [4]), the pKd (as a rule, −log10 of the Kd, conventionally taken in molar units) is 8.70. The “NRAS/KRAS (ratio of KD value with respect to GDP-bound NRAS wild-type protein to KD value with respect to KRAS)” value in assay [2] was “A (a compound having 10 or more and less than 20 is denoted as A)”. Also, in assay [3], the “HRAS/KRAS (ratio of KD value with respect to GDP-bound HRAS wild-type protein to KD value with respect to KRAS)” value is “A (a compound having 10 or more and less than 20 is denoted as A)”.

In the case of `CCO[C@@H]1C[C@H]2C(=O)NC3(CC(C)(C)C3)C(=O)N(C)[C@@H](C(CC)CC)C(=O)N(C)[C@H](C(=O)N3CCCC3)CC(=O)N(C)[C@@H](C)C(=O)N[C@@H]([C@@H](C)CC)C(=O)N(C)CC(=O)N(C)[C@H]3C/C=C\CCN(C3=O)[C@@H](Cc3ccc(C)cc3)C(=O)N(C)CC(=O)N[C@@H](CCc3ccc(C(F)(F)F)c(Cl)c3)C(=O)N2C1` [PP2152], the pKd in assay [1] (SPR, Single Cycle Kinetics) was 9.17. Further, the “NRAS/KRAS (ratio of KD value for NRAS to KD value for KRAS)” value in assay [2] was “AA (a compound having 20 or more is denoted as AA)”. Further, the “HRAS/KRAS (ratio of KD value for HRAS to KD value for KRAS)” value in assay [3] was “A (a compound having 10 or more and less than 20 is denoted as A)”.

With `CC[C@H](C)[C@@H]1NC(=O)[C@H](CC(C)C)N(C)C(=O)C[C@@H](C(=O)N2CCOCC2)N(C)C(=O)[C@H](C2CCCC2)N(C)C(=O)C2(CCCC2)NC(=O)[C@@H]2CCCN2C(=O)[C@H](CCc2ccc(C(F)(F)F)c(Cl)c2)NC(=O)CN(C)C(=O)[C@H](Cc2ccc(C)cc2)N(CCC(F)(F)F)C(=O)CN(C)C(=O)CN(C)C1=O` [PP0103] ([NMeL]I[Sar][Sar][X36][Sar][hPhe(3-Cl-4-CF3)]P[Ac5c][NMeGly(cPent)][NMeD]-Morpholide; lactam N-11), the pKd in assay [1] (setting [4]) was 9.82. The “NRAS/KRAS (ratio of KD value for NRAS to KD value for KRAS)” value in assay [2] is “B (a compound having 3 or more and less than 10 is denoted as B)”. Moreover, the “HRAS/KRAS (ratio of KD value for HRAS to KD value for KRAS)” value in assay [3] was “C (A compound having a KD ratio of 0.1 or more and less than 3 is denoted as C)”.

For `CCCC[C@H]1C(=O)N[C@@H]([C@@H](C)CC)C(=O)N(C)CC(=O)N(C)[C@H]2C/C=C\CCN(C2=O)[C@@H](Cc2ccc(C(F)(F)F)cc2)C(=O)N(C)CC(=O)N[C@@H](CCc2cc(F)c(C(F)(F)F)c(F)c2)C(=O)N2C[C@H](OCC)C[C@H]2C(=O)NC2(CC(C)(C)C2)C(=O)N(C)[C@@H](C2CCCC2)C(=O)N(C)[C@H](C(=O)N(C)CC)CC(=O)N1C` [PP2806], in assay [1] (setting [4]), the pKd is 9.92. In assay [2], the “NRAS/KRAS (ratio of KD value with respect to GDP-bound NRAS wild-type protein to KD value with respect to KRAS)” value is “A (a compound having 10 or more and less than 20 is denoted as A)”. Also, in assay [3], the “HRAS/KRAS (ratio of KD value with respect to GDP-bound HRAS wild-type protein to KD value with respect to KRAS)” value was “A (a compound having 10 or more and less than 20 is denoted as A)”.

With `CCO[C@@H]1C[C@H]2C(=O)NC3(CCCC3)C(=O)N(C)[C@@H](C3CCCC3)C(=O)N(C)[C@H](C(=O)N3CCOCC3)CC(=O)N(C)[C@@H](CC(C)C)C(=O)N[C@@H]([C@@H](C)CC)C(=O)N(C)[C@@H](C)C(=O)N3CC[C@H]3C(=O)N(CC)[C@@H](Cc3ccc(C)cc3)C(=O)N(C)CC(=O)N[C@@H](CCc3ccc(C(F)(F)F)c(Cl)c3)C(=O)N2C1` [PP0014] ([NMeL]I[NMeA][Aze][NEtPhe(4-Me)][Sar][hPhe(3-Cl-4-CF3)][Hyp](Et)[Ac5c][NMeGly(cPent)][NMeD]-Morpholide; lactam N-11), the pKd in assay [1] (setting [4]) is 10.05. Also, the “NRAS/KRAS (ratio of KD value for NRAS to KD value for KRAS)” value in assay [2] was “C (A compound having a KD ratio of 0.1 or more and less than 3 is denoted as C)”. The “HRAS/KRAS (ratio of KD value for HRAS to KD value for KRAS)” value in assay [3] is “C (A compound having a KD ratio of 0.1 or more and less than 3 is denoted as C)”.

For the compound `CCC[C@@H]1C[C@H]2C(=O)NC3(CCC3)C(=O)N(C)[C@@H](C3CCCC3)C(=O)N(C)[C@H](C(=O)N(C)C)CC(=O)N(C)[C@@H](CCC)C(=O)N[C@@H]([C@@H](C)CC)C(=O)N(C)CC(=O)N(C)[C@H]3C/C=C\CCN(C3=O)[C@@H](Cc3ccc(C)cc3)C(=O)N(C)CC(=O)N[C@@H](CCc3ccc(C(F)(F)F)c(Cl)c3)C(=O)N2C1` [PP2238], in assay [1] (SPR, Single Cycle Kinetics), the pKd was 9.70. For the same compound, the “NRAS/KRAS (ratio of KD value for NRAS to KD value for KRAS)” value in assay [2] is “A (a compound having 10 or more and less than 20 is denoted as A)”. Besides, the “HRAS/KRAS (ratio of KD value for HRAS to KD value for KRAS)” value in assay [3] was “A (a compound having 10 or more and less than 20 is denoted as A)”.

Turning to `CCO[C@@H]1C[C@H]2C(=O)NC3(CC(C)(C)C3)C(=O)N(C)[C@@H](C3CCCC3)C(=O)N(C)[C@H](C(=O)N3CCCC3)CC(=O)N(C)[C@H]3CCC/C=C/c4ccc(cc4)C[C@@H](C(=O)N(C)CC(=O)N[C@@H](CCc4cc(F)c(C(F)(F)F)c(F)c4)C(=O)N2C1)N1CC/C=C\C[C@@H](C1=O)N(C)C(=O)CN(C)C(=O)[C@H]([C@@H](C)CC)NC3=O` [PP2574, (1S,7S,11R,13S,19S,22S,26S,29S,35S,37Z,47E)-19-cyclopentyl-7-[2-[3,5-difluoro-4-(trifluoromethyl)phenyl]ethyl]-11-ethoxy-3,3′,3′,18,21,25,31,34-octamethyl-29-[(1S)-1-methylpropyl]-22-(pyrrolidine-1-carbonyl)spiro[3,6,9,15,18,21,25,28,31,34,41-undecazapentacyclo[24.15.10.2^43,46.1^35,41.0^9,13]tetrapentaconta-37,43(53),44,46(52),47-pentaene-16,1′-cyclobutane]-2,5,8,14,17,20,24,27,30,33,54-undecone], the pKd in assay [1] (setting [4]) is 10.29. The “NRAS/KRAS (ratio of KD value with respect to GDP-bound NRAS wild-type protein to KD value with respect to KRAS)” value in assay [2] is “A (a compound having 10 or more and less than 20 is denoted as A)”. Further, the “HRAS/KRAS (ratio of KD value with respect to GDP-bound HRAS wild-type protein to KD value with respect to KRAS)” value in assay [3] was “A (a compound having 10 or more and less than 20 is denoted as A)”.

Take `CCCN1C(=O)CN(C)C(=O)CN(C)C(=O)[C@H]([C@@H](C)CC)NC(=O)[C@H](CC(C)C)N(C)C(=O)C[C@@H](C(=O)N(C)C)N(C)C(=O)[C@H](C2CCCC2)N(C)C(=O)C2(CCCC2)NC(=O)[C@@H]2CCCN2C(=O)[C@H](CCc2ccc(C(F)(F)F)c(Cl)c2)NC(=O)CN(C)C(=O)[C@@H]1Cc1ccc(C(F)(F)F)cc1` [PP0169] ([NMeL]I[Sar][Sar][NPrPhe(4-CF3)][Sar][hPhe(3-Cl-4-CF3)]P[Ac5c][NMeGly(cPent)][NMeD]-NMe2; lactam N-11): in assay [1] (setting [4]), the pKd was 10.46. Besides, in assay [2], the “NRAS/KRAS (ratio of KD value for NRAS to KD value for KRAS)” value was “B (a compound having 3 or more and less than 10 is denoted as B)”. The “HRAS/KRAS (ratio of KD value for HRAS to KD value for KRAS)” value in assay [3] is “B (a compound having 3 or more and less than 10 is denoted as B)”.

Take `CCCN1C(=O)[C@@H]2CCN2C(=O)[C@H](C)N(C)C(=O)[C@H]([C@@H](C)CC)NC(=O)[C@H](CC(C)C)N(C)C(=O)C[C@@H](C(=O)N2CCOCC2)N(C)C(=O)[C@H](C2CCCC2)N(C)C(=O)C2(CCC2)NC(=O)[C@@H]2C[C@@H](OCC)CN2C(=O)[C@H](CCc2ccc(C(F)(F)F)c(Cl)c2)NC(=O)CN(C)C(=O)[C@@H]1Cc1ccc(C(F)(F)F)cc1` [PP0406] ([NMeL]I[NMeA][Aze][NPrPhe(4-CF3)][Sar][hPhe(3-Cl-4-CF3)][Hyp](Et)[Ac4c][NMeGly(cPent)][NMeD]-Morpholide; lactam N-11): the pKd in assay [1] (setting [4]) was 10.38. In addition, the “NRAS/KRAS (ratio of KD value for NRAS to KD value for KRAS)” value in assay [2] is “C (A compound having a KD ratio of 0.1 or more and less than 3 is denoted as C)”. For the same compound, in assay [3], the “HRAS/KRAS (ratio of KD value for HRAS to KD value for KRAS)” value is “B (a compound having 3 or more and less than 10 is denoted as B)”.

Values taken from patent US20240158446A1, “CYCLIC COMPOUND HAVING SELECTIVE INHIBITORY ACTION ON KRAS OVER HRAS AND NRAS” (CHUGAI SEIYAKU KABUSHIKI KAISHA, priority 2021, published 2024).
